Among the data in patent US9187450B2, “Substituted pyridine compound” (Daiichi Sankyo Company, Limited, priority 2010, dated 2015) are IC50 values, retold here.

Usually IC50 stands for the midpoint of a concentration-inhibition curve.

recombinant human CETP protein, sequence (P11597 18-493): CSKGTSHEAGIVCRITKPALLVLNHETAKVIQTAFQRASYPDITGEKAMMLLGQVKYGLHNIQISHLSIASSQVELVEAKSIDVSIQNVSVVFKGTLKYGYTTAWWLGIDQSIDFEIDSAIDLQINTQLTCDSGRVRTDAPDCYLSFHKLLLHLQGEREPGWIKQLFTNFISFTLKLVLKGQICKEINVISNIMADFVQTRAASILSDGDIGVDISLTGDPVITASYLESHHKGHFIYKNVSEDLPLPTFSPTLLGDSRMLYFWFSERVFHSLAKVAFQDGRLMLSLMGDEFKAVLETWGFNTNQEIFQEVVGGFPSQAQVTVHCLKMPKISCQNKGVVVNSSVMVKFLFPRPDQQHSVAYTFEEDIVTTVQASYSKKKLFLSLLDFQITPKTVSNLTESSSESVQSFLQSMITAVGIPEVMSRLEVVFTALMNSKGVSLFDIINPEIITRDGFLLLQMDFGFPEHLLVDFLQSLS

The assay deals with recombinant human CETP protein (Homo sapiens (Human), UniProt P11597). Kind of assay: Test of CETP inhibition activity (in vitro, buffer-based). As to conditions: reconstituted HDL with [14C]-labeled cholesteryl ester, acceptor lipoprotein, 37° C. Format: biochemical. The procedure:
Test of CETP Inhibition Activity (In Vitro, Buffer-Based)
(1) Preparation of Reconstituted HDL
Cholesterol (1.125 μmol), phosphatidyl choline (4.5 μmol) and [^14C]-labeled cholesteryl ester (2.0 μCi; 40 μl) were taken in a glass test tube and well mixed with a vortex, and dried under a nitrogen gas current so that it formed a thin film. The obtained mixture was dissolved in ethanol (200 μl), which was designated as Solution A. A PBS solution [a mixed solution of Na2HPO4 (30 mM), KH2PO4 (8.8 mM), NaCl (60 mM) and EDTA (pH 7.4; 0.67 mM); 4 ml] was taken in a tube and the reaction solution was vigorously stirred with a vortex under a nitrogen current. The above-described Solution A was gently injected into this mixture with a syringe and the reaction solution was vigorously stirred with a vortex for 5 minutes under a nitrogen current. Sodium cholate ([…]; 0.38 ml) was added to the obtained mixture and the reaction solution was stirred for 2 minutes. ApoA-I protein (3 mg) was added to the obtained mixture and the reaction solution was stirred for 2 minutes. The obtained mixture was adjusted to 5 ml with the PBS solution and then dialyzed with the PBS solution. The obtained mixture was designated as the reconstituted HDL.
(2) Preparation of Acceptor Lipoprotein
NaBr was added to the plasma of a healthy person and the density of the mixture was adjusted to 1.019, and the mixture was subjected to density gradient centrifugation (40000 rpm, for 16 hours) to remove the fraction having a density of less than 1.019. NaBr was added to the obtained mixture and the density of the solution was adjusted to 1.063, and the solution was subjected to density gradient centrifugation (40000 rpm, 18 hours) to provide the fraction consisting of IDL (intermediate density lipoprotein) and LDL (1.019<density<1.063). The obtained fraction was dialyzed with the PBS solution. The obtained mixture was designated as the acceptor lipoprotein.
(3) Measurement of CETP Inhibition Activity
A recombinant human CETP protein (manufactured by Roar Biomedical Inc.; 4.5 ng), the acceptor lipoprotein described in (2) above (32.5 μg) and 5,5′-dithio-bis-(2-nitrobenzoic acid) (7 mM, 15 μl) were taken in a 96 well plate and the total amount of the mixture was adjusted to 48.5 μl with the PBS solution. The test compound [DMSO solution (concentration: 0.15, 0.5, 1.5, 5, 15, 50, 150 and 500 μM; 1.5 μl] was added to each well and the mixture was incubated in a thermostatic bath at 37° C. for 60 minutes. The reconstituted HDL (50 μl) described in (1) above was added to each well and the mixture was reacted in a thermostatic bath at 37° C. for 60 minutes. The 96 well plate was moved onto ice and a precipitation reagent [a mixed solution of magnesium chloride (60 mM) and 0.1% dextran sulfate [1/1 (v/v)]; 15 μl] was added to each well, and then the mixture was allowed to stand on ice for 15 minutes. The reaction solution (80 μl) in each well was moved to a filter plate and centrifuged at 1500 rpm for 1 minute, and the filtrate which passed through the filter was designated as the HDL fraction and the radioactivity thereof was measured with a scintillation counter. The percentage decrease in radioactivity in the case where the test compound was added in comparison with that in case where the test compound was not added was designated as the percentage CETP inhibition. The IC50 value was calculated from the percentage CETP inhibition.
In the case of `CC1(C)Cc2nc(C3CCN(c4ncc(OC[C@@H](O)CO)cn4)CC3)c([C@@H](F)c3ccc(C(F)(F)F)cc3)c(C3CCC(F)(F)CC3)c2[C@@H](O)C1` [Example 39, (−)-4-(4,4-Difluorocyclohexyl)-2-[1-(5-{[(2S)-2,3-dihydroxypropyl]oxy}pyrimidin-2-yl)piperidin-4-yl]-3-{fluoro[4-(trifluoromethyl)phenyl]methyl}-7,7-dimethyl-5,6,7,8-tetrahydroquinolin-5-ol], the IC50 turned out to be 32 nM.

For `CC1(C)Cc2nc(C3CCN(c4ncc(OCCCCC(=O)O)cn4)CC3)c([C@@H](F)c3ccc(C(F)(F)F)cc3)c(C3CCC(F)(F)CC3)c2[C@@H](O)C1` (single isomer, unassigned) [Example 23, (−)-2-{1-[5-(4-Carboxybutoxyl)pyrimidin-2-yl]piperidin-4-yl}-4-(4,4-difluorocyclohexyl)-3-{fluoro[4-(trifluoromethyl)phenyl]methyl}-7,7-dimethyl-5,6,7,8-tetrahydroquinolin-5-ol], the IC50 came to 37 nM.

In the case of `CC1(C)Cc2nc(C3CCN(c4ncc(OCC(C)(CO)CO)cn4)CC3)c([C@@H](F)c3ccc(C(F)(F)F)cc3)c(C3CCC(F)(F)CC3)c2[C@@H](O)C1` (single isomer, unassigned) [Example 50, (−)-4-(4,4-Difluorocyclohexyl)-3-{fluoro[4-(trifluoromethyl)phenyl]methyl}-2-(1-{5-[3-hydroxy-2-(hydroxymethyl)-2-methylpropoxy]pyrimidin-2-yl}piperidin-4-yl)-7,7-dimethyl-5,6,7,8-tetrahydroquinolin-5-ol], the IC50 turned out to be 13 nM.

For the molecule `CN(CCO)Cc1cnc(N2CCC(c3nc4c(c(C5CCC(F)(F)CC5)c3[C@@H](F)c3ccc(C(F)(F)F)cc3)[C@@H](O)CC(C)(C)C4)CC2)nc1` (single isomer, unassigned) [Example 36, (−)-4-(4,4-difluorocyclohexyl)-3-{fluoro[4-(trifluoromethyl)phenyl]methyl}-2-{1-(5-{[(2-hydroxyethyl)(methyl)amino]methyl}pyrimidine-2-yl)piperidin-4-yl}-7,7-dimethyl-5,6,7,8-tetrahydroquinoline-5-ol], the IC50 turned out to be 35 nM.

For `CC1(C)Cc2nc(C3CCN(c4ncc(C5CC5)cn4)CC3)c([C@@H](F)c3ccc(C(F)(F)F)cc3)c(C3CCC(F)(F)CC3)c2[C@@H](O)C1` (single isomer, unassigned) [Example 19, (−)-2-[1-(5-Cyclopropylpyrimidin-2-yl)piperidin-4-yl]-4-(4,4-difluorocyclohexyl)-3-{fluoro[4-(trifluoromethyl)phenyl]methyl}-7,7-dimethyl-5,6,7,8-tetrahydroquinolin-5-ol], the IC50 is 198 nM.

For `CC(C)S(=O)(=O)N(C)Cc1cnc(N2CCC(c3nc4c(c(C5CCC(F)(F)CC5)c3[C@@H](F)c3ccc(C(F)(F)F)cc3)[C@@H](O)CC(C)(C)C4)CC2)nc1` (single isomer, unassigned) [Example 52, 4-(4,4-Difluorocyclohexyl)-3-{fluoro[4-(trifluoromethyl)phenyl]methyl}-7,7-dimethyl-2-[1-(5-{[methyl(propan-2-ylsulfonyl)amino]methyl}pyrimidin-2-yl)piperidin-4-yl]-5,6,7,8-tetrahydroquinolin-5-ol], the IC50 was determined as 6 nM.

As for `COCc1cnc(N2CCC(c3nc4c(c(C5CCC(F)(F)CC5)c3[C@@H](F)c3ccc(C(F)(F)F)cc3)[C@@H](O)CC(C)(C)C4)CC2)nc1` (single isomer, unassigned) [Example 27, (−)-4-(4,4-Difluorocyclohexyl)-3-{fluoro[4-(trifluoromethyl)phenyl]methyl}-2-{1-[5-(methoxymethyl)pyrimidin-2-yl]piperidin-4-yl}-7,7-dimethyl-5,6,7,8-tetrahydroquinolin-5-ol], the IC50 was found to be 40 nM.
